{"source": "patent US7705010B2", "about": "“Use of minoxidil sulfate as an anti-tumor drug” (Cedars-Sinai Medical Center, priority 2005, dated 2010)", "key": {"unmodified GL26 cells": {"test_system": "unmodified GL26 cells", "assay": "GL26 drug cytotoxicity screens", "format": "cell-based, murine", "details": "drug 125-1000 μM, read-out: EC50 (concentrations giving 50% killing)", "procedure": "GL26 drug cytotoxicity (EC50, concentrations giving 50% killing) screens were performed with the results depicted in Table 2."}, "HBMVEC Endothelial": {"test_system": "HBMVEC Endothelial", "assay": "WST-1 cytotoxic screening, HBMVEC Endothelial", "details": "read-out: Effective concentration for 50% cell death (EC50)", "procedure": "(§1) Thus, the inventors examined the in vitro effect of several ATP-dependent potassium channel agonists on cell viability in a wide range of tumor and normal cells.\n(§2) Table 1 depicts the in vitro effect of KATP channel agonists on cell viability in a range of tumor and normal cells. The cytotoxic screening assay (WST-1 assay; Roche Diagnostics) results shown are the effective KATP channel agonist concentration (μM) required for 50% cell death (EC50) after exposure to the same for 24 hours. Indicated percentages are the percent viable cells remaining after treatment with 1000 μM of KATP channel agonists."}, "RG2 Glioma": {"test_system": "RG2 Glioma", "assay": "WST-1 cytotoxic screening, RG2 Glioma", "details": "for EC50: read-out: Effective concentration for 50% cell death (EC50)", "procedure": "as §1, §2"}, "U87 human glioma": {"test_system": "U87 human glioma", "assay": "WST-1 cytotoxic screening, U87 Glioma", "details": "for EC50: read-out: Effective concentration for 50% cell death (EC50)", "procedure": "as §1, §2"}, "HT-29 human colon cancer": {"test_system": "HT-29 human colon cancer", "assay": "WST-1 cytotoxic screening, HT-29 Colon Cancer", "details": "for EC50: read-out: Effective concentration for 50% cell death (EC50)", "procedure": "as §1, §2"}, "GL-26 Glioma": {"test_system": "GL-26 Glioma", "assay": "cells", "details": "read-out: Effective concentration for 50% cell death (EC50)", "procedure": "as §1, §2"}, "MDA-231 Breast Cancer": {"test_system": "MDA-231 Breast Cancer", "assay": "WST-1 cytotoxic screening, MDA-231 Breast Cancer", "format": "cell-based", "details": "read-out: Effective concentration for 50% cell death (EC50)", "procedure": "as §1, §2"}, "CRL5904 NSC Lung Cancer": {"test_system": "CRL5904 NSC Lung Cancer", "assay": "WST-1 cytotoxic screening, CRL5904 NSC Lung Cancer", "details": "for EC50: read-out: Effective concentration for 50% cell death (EC50); for viability at 1000 µM: read-out: percentage of viable cells remaining", "procedure": "as §1, §2"}, "C6 rat glioma": {"test_system": "C6 rat glioma", "assay": "WST-1 cytotoxic screening, C6 Glioma", "details": "for EC50: 24 h, read-out: Effective concentration for 50% cell death (EC50)", "procedure": "as §1, §2"}, "[1]": {"assay": "WST-1 cytotoxic screening, HBMVEC Endothelial", "details": "human, HBMVEC endothelial cells (non-cancer)", "procedure": "as §1, §2"}, "DNTC-1 Astrocytes": {"test_system": "DNTC-1 Astrocytes", "assay": "WST-1 cytotoxic screening, DNTC-1 Astrocytes", "format": "cell-based", "details": "Astrocyte, treatment for 24 hours, read-out: Effective concentration for 50% cell death (EC50)", "procedure": "as §1, §2"}, "GL26 glioma": {"test_system": "GL26 glioma", "assay": "Survival of mice with intracranial GL26 glioma", "format": "in vivo", "details": "for survival, C57BL/6 (WT) relative to nu/nu mice: 2.7 mg/kg days 7-9 after GL26 implantation, log-rank; for survival: 2.7 mg/kg i.v. days 7-9 after intracranial GL26 implantation, 2.7 mg/kg", "procedure": "FIG. 1 depicts T cell-induced chemosensitization of murine glioma in accordance with an embodiment of the present invention. Fifty thousand (50,000) GL26 tumor cells in […] 1% methylcellulose were implanted i.c. into anesthetized female C57BL/6J (black lines) or nu/nu (gray lines) mice aged 6-8 weeks using a stereotactic rodent frame. Injection was 1 mm posterior and 2.5 mm lateral to the junction of the coronal and saggital sutures (bregma), at a depth of 2 mm. Vaccinated mice received 2, subcutaneous injections of 2×106 tumor lysate-pulsed, irradiated cultured DC2.4 dendritic cells in […] sterile PBS as vaccine on day 3 and 7 post tumor implantation, and a chemotherapeutic drug (dosage: 2.7 mg/kg minoxidil sulfate) was administered on days 7, 8, and 9 post tumor implantation. […] Survival differences were assessed by log-rank statistics.\nFIGS. 2a and 2b depicts survival rates of mice treated with minxodil sulfate in accordance with an embodiment of the present invention. Survival of Nude (nu; gray) and C57BL/6 (WT) mice with (solid black) or without (dotted black) vaccination, treated 7-9 days after intracranial GL26 glioma implantation with vehicle (DMSO) or minoxidil sulfate (MS, 2.7 mg/kg in 50 μl, i.v.). Vaccinated mice were injected subcutaneously with […] tumor lysate-pulsed syngeneic DC2.4 dendritic cells 3 and 7 days after GL26 implantation.\nGL26 glioma cells were implanted intracranially into T cell-deficient (nude) or syngeneic wild-type (C57BI/6) mice, which were treated with a chemotherapeutic drug alone or with vaccination using GL26 lysate-pulsed DC2.4 dendritic cells. […] (FIG. 1).\nChemosensitivity was modeled by growth of the GL26 glioma in syngeneic C57BL/6 (B6), vaccinated B6, and T cell-deficient nude mice. Tumor implantation was followed by chemotherapeutic drug treatment and/or DC vaccination."}, "9L Glioma": {"test_system": "9L Glioma", "assay": "WST-1 cytotoxic screening, 9L Glioma", "format": "cell-based", "details": "for EC50: treatment for 24 hours, read-out: Effective concentration for 50% cell death (EC50)", "procedure": "as §1, §2"}, "[2]": {"details": "Homo sapiens, MDA-MB-231, treatment for 24 hours"}}, "note": "Where a name gives a salt, the structure may show the parent alone. Read-outs that look alike come from different tables or passages of the source.", "data": [{"smiles": "COc1cccc2c1C(=O)c1c(O)c3c(c(O)c1C2=O)C[C@@](O)(C(=O)CO)C[C@@H]3O[C@H]1C[C@H](N)[C@H](O)[C@H](C)O1", "note": "[Adriamycin]", "values": [{"measurement": "EC50", "setting": "unmodified GL26 cells; Mus musculus", "value": "< 125", "unit": "µM"}]}, {"smiles": "CC1(C)Oc2ccc(S(=O)(=O)Nc3ccccc3)cc2[C@@H](N2CCCCC2=O)[C@@H]1O", "note": "[KCO912]", "values": [{"measurement": "EC50", "setting": "HBMVEC Endothelial; HBMVEC Endothelial, treatment for 24 hours", "value": "> 1", "unit": "mM"}, {"measurement": "EC50", "setting": "RG2 Glioma; RG2 Glioma, treatment for 24 hours", "value": "> 1000", "unit": "µM"}, {"measurement": "EC50", "setting": "U87 human glioma; U87 Glioma, treatment for 24 hours", "value": "> 1000", "unit": "µM"}, {"measurement": "EC50", "setting": "HT-29 human colon cancer; HT-29 Colon Cancer, treatment for 24 hours", "value": "> 1000", "unit": "µM"}, {"measurement": "EC50", "setting": "GL-26 Glioma; GL-26 Glioma, treatment for 24 hours", "value": "> 1000", "unit": "µM"}, {"measurement": "EC50", "setting": "MDA-231 Breast Cancer; treatment for 24 hours", "value": 126, "unit": "µM"}, {"measurement": "EC50", "setting": "CRL5904 NSC Lung Cancer; CRL5904 NSC Lung Cancer, treatment for 24 hours", "value": "> 1", "unit": "mM"}]}, {"smiles": "CN(Cc1cnc2nc(N)nc(N)c2n1)c1ccc(C(=O)N[C@@H](CCC(=O)O)C(=O)O)cc1", "note": "[Methotrexate]", "values": [{"measurement": "EC50", "setting": "unmodified GL26 cells; Mus musculus", "value": "> 1000", "unit": "µM"}]}, {"smiles": "Nc1cc(N2CCCCC2)nc(N)[n+]1OS(=O)(=O)[O-]", "note": "[Minoxidil Sulfate, minoxidil sulfate]", "values": [{"measurement": "EC50", "setting": "unmodified GL26 cells; Mus musculus", "value": 595, "unit": "µM"}, {"measurement": "effectiveness as a cytotoxic agent", "setting": "C6 rat glioma; C6 rat glioma, WST-1 assay", "value": "highly effective"}, {"measurement": "EC50", "setting": "C6 rat glioma; Rattus norvegicus, C6 glioma", "value": 130, "unit": "µM"}, {"measurement": "EC50", "setting": "HBMVEC Endothelial; 24 h", "value": "> 1", "unit": "mM"}, {"measurement": "viability at 24 h, 1000 μM", "setting": "[1]", "value": 84, "unit": "%"}, {"measurement": "EC50", "setting": "DNTC-1 Astrocytes", "value": 110, "unit": "µM"}, {"measurement": "survival, C57BL/6 (WT) relative to nu/nu mice", "setting": "GL26 glioma", "value": "increased survival"}, {"measurement": "survival, C57BL/6 (WT) relative to nu/nu mice", "setting": "GL26 glioma; listed as MS", "value": "significantly increased"}, {"measurement": "survival", "setting": "GL26 glioma; T cell-deficient nude (nu/nu) hosts", "value": "not in nude hosts"}, {"measurement": "survival", "setting": "GL26 glioma; T cell-deficient nude (nu/nu) hosts, listed as MS", "value": "increased survival only in WT hosts"}, {"measurement": "survival", "setting": "GL26 glioma; wild-type C57BL/6 hosts, with or without DC vaccination", "value": "prolonged survival in B6"}, {"measurement": "survival", "setting": "GL26 glioma; wild-type C57BL/6 hosts, with or without DC vaccination, listed as MS", "value": "increased survival"}, {"measurement": "survival", "setting": "GL26 glioma; wild-type C57BL/6 hosts, with or without DC vaccination, listed as Minoxidil sulfate", "value": "enhanced survival"}, {"measurement": "EC50", "setting": "RG2 Glioma; Rattus norvegicus, RG2, 24 h", "value": 810, "unit": "µM"}, {"measurement": "EC50", "setting": "U87 human glioma; Homo sapiens, U-87 MG, 24 h", "value": 308, "unit": "µM"}, {"measurement": "effectiveness as a cytotoxic agent", "setting": "U87 human glioma; U87 human glioma, WST-1 assay", "value": "highly effective"}, {"measurement": "effectiveness as a cytotoxic agent", "setting": "HT-29 human colon cancer; HT-29 human colon cancer, WST-1 assay", "value": "highly effective"}, {"measurement": "EC50", "setting": "HT-29 human colon cancer; Homo sapiens, HT-29, 24 h", "value": 360, "unit": "µM"}, {"measurement": "EC50", "setting": "GL-26 Glioma; Mus musculus, GL26, 24 h", "value": 595, "unit": "µM"}, {"measurement": "EC50", "setting": "MDA-231 Breast Cancer; [2]", "value": 930, "unit": "µM"}, {"measurement": "EC50", "setting": "CRL5904 NSC Lung Cancer; 24 h", "value": "> 1", "unit": "mM"}, {"measurement": "viability at 1000 µM", "setting": "CRL5904 NSC Lung Cancer", "value": 89, "unit": "%"}, {"measurement": "viability at 1000 µM", "setting": "9L Glioma; after treatment with 1000 μM, read-out: percentage of viable cells remaining", "value": 51, "unit": "%"}, {"measurement": "EC50", "setting": "9L Glioma", "value": "> 1000", "unit": "µM"}]}, {"smiles": "N.N.O=C([O-])C1(C(=O)[O-])CCC1.[Pt+2]", "note": "[Carboplatin]", "values": [{"measurement": "EC50", "setting": "unmodified GL26 cells", "value": 310, "unit": "µM"}]}, {"smiles": "CC(N/C(=N\\C#N)Nc1ccncc1)C(C)(C)C", "note": "(stereo not drawn) [Pinacidil, pinacidil]", "values": [{"measurement": "EC50", "setting": "unmodified GL26 cells; Mus musculus", "value": 210, "unit": "µM"}, {"measurement": "EC50", "setting": "C6 rat glioma; Rattus norvegicus, C6 glioma", "value": "> 1000", "unit": "µM"}, {"measurement": "viability at 1000 µM", "setting": "C6 rat glioma; Rattus norvegicus, C6 glioma, read-out: percentage of viable cells remaining", "value": 93, "unit": "%"}, {"measurement": "EC50", "setting": "HBMVEC Endothelial; 24 h", "value": "> 1", "unit": "mM"}, {"measurement": "viability at 24 h, 1000 μM", "setting": "[1]", "value": 106, "unit": "%"}, {"measurement": "EC50", "setting": "RG2 Glioma; Rattus norvegicus, RG2, 24 h", "value": "> 1000", "unit": "µM"}, {"measurement": "viability at 1000 µM", "setting": "RG2 Glioma; Rattus norvegicus, RG2, read-out: percentage of viable cells remaining", "value": 69, "unit": "%"}, {"measurement": "EC50", "setting": "U87 human glioma; Homo sapiens, U-87 MG, 24 h", "value": "> 1000", "unit": "µM"}, {"measurement": "viability at 1000 µM", "setting": "U87 human glioma; Homo sapiens, U-87 MG, read-out: percentage of viable cells remaining", "value": 77, "unit": "%"}, {"measurement": "EC50", "setting": "HT-29 human colon cancer; Homo sapiens, HT-29, 24 h", "value": "> 1000", "unit": "µM"}, {"measurement": "viability at 1000 µM", "setting": "HT-29 human colon cancer; Homo sapiens, HT-29, read-out: percentage of viable cells remaining", "value": 74, "unit": "%"}, {"measurement": "EC50", "setting": "GL-26 Glioma; Mus musculus, GL26, 24 h", "value": 210, "unit": "µM"}, {"measurement": "EC50", "setting": "MDA-231 Breast Cancer; [2]", "value": 220, "unit": "µM"}, {"measurement": "EC50", "setting": "CRL5904 NSC Lung Cancer; 24 h", "value": "> 1", "unit": "mM"}, {"measurement": "viability at 1000 µM", "setting": "CRL5904 NSC Lung Cancer", "value": 79.5, "unit": "%"}, {"measurement": "EC50", "setting": "9L Glioma", "value": 790, "unit": "µM"}]}, {"smiles": "Cn1nnc2c(C(N)=O)ncn2c1=O", "note": "[Temodar]", "values": [{"measurement": "EC50", "setting": "unmodified GL26 cells; Mus musculus", "value": "> 1000", "unit": "µM"}]}]}
